Marks after values point to notes of the source that are not given here.
Experiments:
human receptor GPR17 = target: T1, human receptor GPR17 (Homo sapiens, UniProt Q13304); experiment: [35S]GTPγS binding assay on membranes of 1321N1 cells transfected with human GPR17; format: biochemical; settings: for Emax / EC50: [35S]GTPγS binding; for Emax: LTC4 at 100 nM, in % (unit assumed); for % Emax vs standard: efficacy relative to LTC4 set to 100%; for EC50: 1321N1 cells expressing human GPR17, mean±SEM of three experiments; for effect of antagonist on concentration-response curve of the compound: in presence of cangrelor or montelukast
T1 construct: expressed in transfected cells; host or cells: human 1321N1 astrocytoma cells, calcium phosphate transfection with pcDNA3.1; plasma membranes used
Procedure: A—The compounds according to the invention were evaluated for their functional activity on GPR17 using a well-known assay for GPCRs, the [^35S]GTPγS binding assay, which is based on the ability of the agonist to increase radioactive GTP binding when a GPCR is activated. The antagonist activity is evaluated according to the ability to counteract the increased [^35S]GTPγS binding induced by the LTC4 reference agonist.
The activation of GPCRs by agonists stimulates the dissociation of GDP from G-protein, thus increasing GTP binding in its place. This increase in GTP binding to G-protein can be quantified in vitro with [^35S]GTPγS. The effect of GPCR activation on [^35S]GTPγS binding is catalytic, because it increases the [^35S]GTPγS binding rate rather than [^35S]GTPγS binding equilibrium. […] For some GPCRs, the binding stimulated by the agonist (ie. the difference between GTP binding in the presence and absence of the agonist) increases with time, peaks and then falls to zero; optimal increases in [^35S]GTPγS binding induced by the agonist are often obtained before equilibrium is attained, rather than at equilibrium. […] The control and transfected cells were homogenised in 5 mM Tris-HCl and 2 mM EDTA (pH 7.4) and centrifuged at 48000 g for 15 min at 4° C. The resulting pellets (plasma membranes) were washed in 50 mM Tris-HCl and 10 mM MgCl2 (pH 7.4) and stored at −80° C. until use.
The Graph-Pad Prism program was used for the analysis and graphic presentation of the [^35S]GTPγS binding data. All the data are shown as the mean±SEM of three different experiments. The data were tested for statistical significance with the paired Student's t test or analysis of variance (one-way ANOVA), as appropriate. When significant differences were observed, the Newman-Keuls multiple comparison test (one-way ANOVA) was performed. A value of P<0.05 was considered significant.

[1] = [35S]GTPγS binding assay on 1321N1 cells transfected only with control vector pcDNA3.1; format: biochemical, human; settings: cells transfected only with pcDNA3.1
Procedure: Human 1321N1 cells were cultured as described [Fumagalli et al., 2004, Biochem Pharmacol 68:113]. For the [^35S]GTPγS assay, 10^6 1321N1 cells were seeded on 75 cm^2 flasks and transfected by the calcium phosphate precipitation method, with the vector pcDNA3.1 containing the construct encoding for human receptor GPR17, and with the empty vector pcDNA3.1 as control [Fumagalli et al., 2004, Biochem Pharmacol 68:113].
The activation of GPCRs by agonists stimulates the dissociation of GDP from G-protein, thus increasing GTP binding in its place. This increase in GTP binding to G-protein can be quantified in vitro with [^35S]GTPγS. The effect of GPCR activation on [^35S]GTPγS binding is catalytic, because it increases the [^35S]GTPγS binding rate rather than [^35S]GTPγS binding equilibrium. Consequently, the [^35S]GTPγS binding assay is intrinsically a functional concentration-response curve, not an equilibrium binding assay [Lazareno, 1999, Methods Mol Biol 1106:231; Milligan, 2003, Trends Pharmacol Ski 24:87]. For some GPCRs, the binding stimulated by the agonist (ie. the difference between GTP binding in the presence and absence of the agonist) increases with time, peaks and then falls to zero; optimal increases in [^35S]GTPγS binding induced by the agonist are often obtained before equilibrium is attained, rather than at equilibrium. […]

[2] = tested on: oligodendrocyte precursor cells (OPCs); experiment: Pro-myelinating activity assay on oligodendrocyte precursor cell (OPC) cultures (MBP-positive cells); format: cell-based, Sprague-Dawley rat; settings: 48 h after start of treatment
Procedure: The OPCs were cultured on plates containing 24 mm slides coated with poly-D,L-ornithine in Neurobasal medium with 2% of B27 supplement (Invitrogen), L-glutamine (2 mM) and enriched with growth factors PDGF and betaFGF (10 ng/ml) to promote proliferation. In order to promote differentiation, after 24 h, the culture medium was replaced with Neurobasal with 2% B27 without growth factors and with the addition of triiodothyronine T3 (400 ng/ml).
The ability of the agonists to promote myelination was evaluated by measuring the increase in the number of cells positive for the MBP marker present in the culture compared with the control treated with the carrier alone. In particular, 48 h after treatment with the agonists, the cells were fixed in 4% paraformaldehyde in 0.1 M PBS and stained by immunocytochemistry using an antibody specific for MBP. […] The slides were mounted with Dako Fluorescent Mounting Medium (Dako, Milan) on cover slips and analysed with an inverted optical microscope (AXIOVERT 200 M, Zeiss, Milan). The images were processed and acquired with Axiovision 4.4 software, in the rhodamine fluorescence channel for MBP. The effects of the treatments on OPC myelination were quantified by manual count using ImageJ software (Wayne Rasband, Research Services Branch of the National Institute of Mental Health of Bethesda, USA).

T1 sequence (Q13304 29-367 limits assumed): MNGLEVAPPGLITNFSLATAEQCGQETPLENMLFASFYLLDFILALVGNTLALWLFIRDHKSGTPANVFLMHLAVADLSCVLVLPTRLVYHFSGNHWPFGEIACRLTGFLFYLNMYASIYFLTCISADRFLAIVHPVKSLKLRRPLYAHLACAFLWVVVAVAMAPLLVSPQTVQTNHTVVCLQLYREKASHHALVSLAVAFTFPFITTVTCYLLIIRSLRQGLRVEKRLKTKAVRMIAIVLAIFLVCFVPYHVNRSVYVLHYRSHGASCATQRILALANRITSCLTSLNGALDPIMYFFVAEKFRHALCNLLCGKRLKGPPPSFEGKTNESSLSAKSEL

**Q.** For `CSCCNc1nc(SCCC(F)(F)F)nc2c1ncn2[C@@H]1O[C@H](COP(=O)(O)OP(=O)(O)C(Cl)(Cl)P(=O)(O)O)[C@@H](O)[C@H]1O` [cangrelor, reference compound], which “type of antagonism on concentration-response curves of compound of formula (I)” value (human receptor GPR17; curves of compound (I) in presence of different concentrations of the antagonist (FIG. 1 C, D)) is on record?
**A.** competitive antagonist

**Q.** Which “response in [35S]GTPγS binding in control-vector cells” value [1] does the source give for `CCCCC/C=C\C\C=C/C=C/C=C/[C@@H](SC[C@H](NC(=O)CC[C@H](N)C(=O)O)C(=O)NCC(=O)O)[C@@H](O)CCCC(=O)O` [LTC4, reference compound] here?
**A.** unable to induce a response

**Q.** What about the Emax (human receptor GPR17) of the same molecule?
**A.** 144.8 ± 0.4

**Q.** What about the “% Emax vs standard” value (human receptor GPR17) of the same molecule?
**A.** 100%

**Q.** Which EC50 (human receptor GPR17) does the source give for `COCCn1nnnc1C(c1cc2cc(OC)ccc2[nH]c1=O)N(CCc1ccccc1)Cc1ccccc1` (centres unmarked) [(II), 6-methoxy-3-[[1-(2-methoxyethyl)-1H-tetrazol-5-yl][(2-phenylethyl)(phenylmethyl)-amino]methyl]-2(1H)-quinolinone] here?
**A.** 3.67 ± 0.51 nM

**Q.** What about the Emax (human receptor GPR17) of the same molecule?
**A.** 206.8 ± 8.3

**Q.** And the “% Emax vs standard” value (human receptor GPR17)?
**A.** 142.8*** %

**Q.** Which EC50 (human receptor GPR17) does the source give for `COc1ccc(N(C(=O)Cn2nnc3ccccc32)C(C(=O)NCC2CCCO2)c2ccc(F)cc2)cc1` (centres unmarked) [(IV), N-[1-(4-fluorophenyl)-2-oxo-2-[[(tetrahydro-2-furanyl)methyl]amino]ethyl]-N-(4-methoxyphenyl)-1H-benzotriazol-1-acetamide] here?
**A.** 2.27 ± 0.07 nM

**Q.** What about the Emax (human receptor GPR17) of the same molecule?
**A.** 173.5 ± 0.5

**Q.** What about the “% Emax vs standard” value (human receptor GPR17) of the same molecule?
**A.** 119.8*** %

**Q.** For `COc1ccc(-n2c(SC(C)C(=O)Nc3ccccc3)nnc2-c2ccccc2OC)cc1` (centres unmarked) [(I), 2-[[5-(2-methoxyphenyl)-4-(4-methoxyphenyl)-4H-1,2,4-triazol-3-yl]thio]-N-phenylpropanamide], which EC50 (human receptor GPR17) is on record?
**A.** 0.109 ± 0.028 nM

**Q.** And the Emax (human receptor GPR17)?
**A.** 145.6 ± 5.7

**Q.** What about the “% Emax vs standard” value (human receptor GPR17) of the same molecule?
**A.** 100.6%

**Q.** What about the “effect of antagonist on concentration-response curve of the compound” value (human receptor GPR17) of the same molecule?
**A.** shifted to the right (increase in EC50), but no effect on efficacy was observed

**Q.** What about the “effect of antagonist on concentration-response curve of the compound” value (human receptor GPR17; listed as I) of the same molecule?
**A.** reduction in the efficacy

**Q.** Which “pro-myelinating activity, in words (mature cells expressing MBP)” value [2] does the source give for `O=c1ccn([C@@H]2O[C@H](COP(=O)(O)OP(=O)(O)O)[C@@H](O)[C@H]2O)c(=O)[nH]1` [UDP] here?
**A.** increase the number of mature cells in culture expressing MBP

**Q.** For `CCCCC/C=C\C\C=C/C=C/C=C/[C@@H](SC[C@H](N)C(=O)O)[C@@H](O)CCCC(=O)O` [LTE4], which “pro-myelinating activity, in words (mature cells expressing MBP)” value [2] is on record?
**A.** increase the number of mature cells in culture expressing MBP

**Q.** What does the source list for `O=C(Nc1ccc(C(F)(F)F)cc1)N1CCC(c2nc(O)c3nnn(Cc4ccccc4Cl)c3n2)CC1` [(V), 4-[3-[(2-chlorophenyl)methyl]-6,7-dihydro-7-oxo-3H-1,2,3-triazole[4,5-d]pyrimidin-5-yl]-N-[4-(trifluoromethyl)phenyl]-1-piperidinecarboxamide]?
**A.** EC50 (human receptor GPR17): 0.268 ± 0.009 nM; Emax (human receptor GPR17): 161.5 ± 2.4; % Emax vs standard (human receptor GPR17): 111.5** %

— patent US20150094348A1, “GPR17-MODULATING COMPOUNDS, DIAGNOSTIC AND THERAPEUTIC USES THEREOF” (Centro Cardiologico Monzino S.p.A., priority 2010, published 2015)
